Measured values reported in US10047096B2, “Substituted pyridobenzodiazepinone-derivatives and use thereof” (Bayer Pharma Aktiengesellschaft, priority 2014, dated 2018).
Structures can show the parent of a compound that is named as a salt.

target: human PDGFRβ (Homo sapiens (Human), UniProt P09619); test: PDGFRβ kinase assay (PDGFRβ-HTRF); format: biochemical; details: not given
Procedure: The PDGFRβ-inhibitory activity of the inventive compounds was determined in the PDGFRβ-HTRF assay described hereinafter.
The kinase used was a recombinant fusion protein composed of N-terminal GST and a C-terminal fragment of human PDGFRβ (amino acids R561-L1106), expressed in baculovirus-infected insect cells (Sf9) and purified by affinity chromatography (from ProQinase GmbH, Freiburg, Germany). The substrate used for the kinase reaction was biotinylated poly-Glu,Tyr (4:1) copolymer (from Cisbio Bioassays, Codolet, France).
For the assay, 50 nl of a 100-fold concentrated solution of the test substance in DMSO was pipetted into a black “low-volume 384 well” microtitre plate (from Greiner Bio-One, Frickenhausen, Germany), then 2 μl of a solution of PDGFRβ in assay buffer [50 mM HEPES/NaOH pH 7.5, 10 mM MgCl2, 2.5 mM dithiothreitol, 0.01% (v/v) Triton-X100 (from Sigma)] was added and the mixture was incubated for 15 min, in order to enable preliminary binding of the substance to the enzyme before the kinase reaction. […] The resulting mixture was incubated at 22° C. for 1 h to allow formation of a complex of the biotinylated phosphorylated substrate and the detection reagents.
Subsequently, the amount of the phosphorylated substrate was evaluated by measuring the resonance energy transfer from the PT66-Eu chelate to the streptavidin-XL665. […] The IC50 values were calculated by a 4-parameter fit.

Sequence of human PDGFRβ (P09619 561-1106): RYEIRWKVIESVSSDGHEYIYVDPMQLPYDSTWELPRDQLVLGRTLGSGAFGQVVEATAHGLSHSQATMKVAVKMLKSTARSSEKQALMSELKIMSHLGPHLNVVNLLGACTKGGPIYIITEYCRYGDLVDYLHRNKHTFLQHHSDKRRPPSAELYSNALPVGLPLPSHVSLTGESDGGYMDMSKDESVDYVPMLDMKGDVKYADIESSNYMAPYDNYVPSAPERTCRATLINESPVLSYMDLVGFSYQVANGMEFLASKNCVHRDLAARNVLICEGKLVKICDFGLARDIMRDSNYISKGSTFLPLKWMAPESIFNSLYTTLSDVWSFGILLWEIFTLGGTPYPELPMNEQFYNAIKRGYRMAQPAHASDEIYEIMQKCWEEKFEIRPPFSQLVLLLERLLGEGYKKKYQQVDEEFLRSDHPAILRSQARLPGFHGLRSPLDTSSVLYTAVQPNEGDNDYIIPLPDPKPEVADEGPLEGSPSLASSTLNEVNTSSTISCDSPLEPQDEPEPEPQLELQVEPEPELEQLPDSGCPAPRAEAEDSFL

| SMILES | IC50 |
| --- | --- |
| Cc1ccc(O)cc1Nc1ccnc2c1C(=O)Nc1cc(CN3CCOCC3)ccc1N2 [Example 41, 4-[(5-Hydroxy-2-methylphenyl)amino]-8-(morpholin-4-ylmethyl)-6,11-dihydro-5H-pyrido[2,3-b][1,5]benzodiazepin-5-one formic acid salt] | 3.72 nM |

same assay, conditions: 10 μM ATP; some mean values from multiple determinations

| SMILES | IC50 |
| --- | --- |
| N#Cc1ccc2c(c1)NC(=O)c1c(Nc3ccc(O)c(O)c3)ccnc1N2 [Example 12, 4-[(3,4-Dihydroxyphenyl)amino]-5-oxo-6,11-dihydro-5H-pyrido[2,3-b][1,5]benzodiazepine-8-carbonitrile] | 84.4 nM |
| N#Cc1ccc2c(c1)NC(=O)c1c(Nc3cc(O)ccc3F)ccnc1N2 [Example 13, 4-[(2-Fluoro-5-hydroxyphenyl)amino]-5-oxo-6,11-dihydro-5H-pyrido[2,3-b][1,5]benzodiazepine-8-carbonitrile] | 21.9 nM |
| Cc1cc(F)c(Nc2ccnc3c2C(=O)Nc2cc(C#N)ccc2N3)cc1O [Example 27, 4-[(2-Fluoro-5-hydroxy-4-methylphenyl)amino]-5-oxo-6,11-dihydro-5H-pyrido[2,3-b][1,5]benzodiazepine-8-carbonitrile] | 15.3 nM |
| Cc1cc(F)c(Nc2ccnc3c2C(=O)Nc2cc(CN(C)C)ccc2N3)cc1O [Example 33, 8-[(Dimethylamino)methyl]-4-[(2-fluoro-5-hydroxy-4-methylphenyl)amino]-6,11-dihydro-5H-pyrido[2,3-b][1,5]benzodiazepin-5-one] | 4.3 nM |
| N#Cc1ccc2c(c1)NC(=O)c1c(Nc3cccc(O)c3)ccnc1N2 [Example 35, 4-[(3-Hydroxyphenyl)amino]-5-oxo-6,11-dihydro-5H-pyrido[2,3-b][1,5]benzodiazepine-8-carbonitrile] | 12.6 nM |
| N#Cc1ccc2c(c1)NC(=O)c1c(Nc3cc(O)ccc3Cl)ccnc1N2 [Example 36, 4-[(2-Chloro-5-hydroxyphenyl)amino]-5-oxo-6,11-dihydro-5H-pyrido[2,3-b][1,5]benzodiazepine-8-carbonitrile] | 20.1 nM |
| N#Cc1ccc2c(c1)NC(=O)c1c(Nc3cc(O)c(Cl)cc3F)ccnc1N2 [Example 37, 4-[(4-chloro-2-fluoro-5-hydroxyphenyl)amino]-5-oxo-6,11-dihydro-5H-pyrido[2,3-b][1,5]benzodiazepine-8-carbonitrile] | 4.6 nM |
| N#Cc1ccc2c(c1)NC(=O)c1c(Nc3cc(O)c(F)cc3F)ccnc1N2 [Example 38, 4-[(2,4-Difluoro-5-hydroxyphenyl)amino]-5-oxo-6,11-dihydro-5H-pyrido[2,3-b][1,5]benzodiazepine-8-carbonitrile] | 7.03 nM |
| Cc1cc(F)c(Nc2ccnc3c2C(=O)Nc2cc(CN4CCC(O)CC4)ccc2N3)cc1O [Example 45, 4-[(2-Fluoro-5-hydroxy-4-methylphenyl)amino]-8-[(4-hydroxypiperidin-1-yl)methyl]-6,11-dihydro-5H-pyrido[2,3-b][1,5]benzodiazepin-5-one] | 0.928 nM |
| Cc1cc(F)c(Nc2ccnc3c2C(=O)Nc2cc(CN4CCN(C)CC4)ccc2N3)cc1O [Example 46, 4-[(2-Fluoro-5-hydroxy-4-methylphenyl)amino]-8-[(4-methylpiperazin-1-yl)methyl]-6,11-dihydro-5H-pyrido[2,3-b][1,5]benzodiazepin-5-one] | 1.52 nM |
| Cc1cc(F)c(Nc2ccnc3c2C(=O)Nc2cc(CN4CCN(CCO)CC4)ccc2N3)cc1O [Example 47, 4-[(2-Fluoro-5-hydroxy-4-methylphenyl)amino]-8-{[4-(2-hydroxyethyl)piperazin-1-yl]methyl}-6,11-dihydro-5H-pyrido[2,3-b][1,5]benzodiazepin-5-one] | 3.67 nM |
| CCCCN(CC)Cc1ccc2c(c1)NC(=O)c1c(Nc3cc(O)c(C)cc3F)ccnc1N2 [Example 53, 8-{[Butyl(ethyl)amino]methyl}-4-[(2-fluoro-5-hydroxy-4-methylphenyl)amino]-6,11-dihydro-5H-pyrido[2,3-b][1,5]benzodiazepin-5-one] | 0.962 nM |

The next lines start with the values.

| IC50 | SMILES |
| --- | --- |
| 9.14 nM | Cc1ccc(O)cc1Nc1ccnc2c1C(=O)Nc1cc(CNCC(F)(F)F)ccc1N2 [Example 14, 4-[(5-Hydroxy-2-methylphenyl)amino]-8-{[(2,2,2-trifluoroethyl)amino]methyl}-6,11-dihydro-5H-pyrido[2,3-b][1,5]benzodiazepin-5-one] |
| 5.77 nM | Cc1ccc(O)cc1Nc1ccnc2c1C(=O)Nc1cc(CNCc3cccc(Cl)c3)ccc1N2 [Example 15, 8-{[(3-Chlorobenzyl)amino]methyl}-4-[(5-hydroxy-2-methylphenyl)amino]-6,11-dihydro-5H-pyrido[2,3-b][1,5]benzodiazepin-5-one] |
| 7.05 nM | Cc1ccc(O)cc1Nc1ccnc2c1C(=O)Nc1cc(CNCC(N)=O)ccc1N2 [Example 16, N^2-({4-[(5-Hydroxy-2-methylphenyl)amino]-5-oxo-6,11-dihydro-5H-pyrido[2,3-b][1,5]benzodiazepin-8-yl}methyl)glycinamide] |
| 5.63 nM | Cc1ccc(O)cc1Nc1ccnc2c1C(=O)Nc1cc(CNCCCCO)ccc1N2 [Example 17, 8-{[(4-Hydroxybutyl)amino]methyl}-4-[(5-hydroxy-2-methylphenyl)amino]-6,11-dihydro-5H-pyrido[2,3-b][1,5]benzodiazepin-5-one] |
| 5.19 nM | Cc1ccc(O)cc1Nc1ccnc2c1C(=O)Nc1cc(CNCCN3CCOCC3)ccc1N2 [Example 18, 4-[(5-Hydroxy-2-methylphenyl)amino]-8-({[2-(morpholin-4-yl)ethyl]amino}methyl)-6,11-dihydro-5H-pyrido[2,3-b][1,5]benzodiazepin-5-one] |
| 2.89 nM | Cc1ccc(O)cc1Nc1ccnc2c1C(=O)Nc1cc(CNC3CCC3)ccc1N2 [Example 20, 8-[(Cyclobutylamino)methyl]-4-[(5-hydroxy-2-methylphenyl)amino]-6,11-dihydro-5H-pyrido[2,3-b][1,5]benzodiazepin-5-one] |
| 2.84 nM | CNCc1ccc2c(c1)NC(=O)c1c(Nc3cc(O)ccc3C)ccnc1N2 [Example 22, 4-[(5-Hydroxy-2-methylphenyl)amino]-8-[(methylamino)methyl]-6,11-dihydro-5H-pyrido[2,3-b][1,5]benzodiazepin-5-one] |
| 2.98 nM | CCCCNCc1ccc2c(c1)NC(=O)c1c(Nc3cc(O)ccc3C)ccnc1N2 [Example 23, 8-[(Butylamino)methyl]-4-[(5-hydroxy-2-methylphenyl)amino]-6,11-dihydro-5H-pyrido[2,3-b][1,5]benzodiazepin-5-one] |
| 4.74 nM | Cc1ccc(O)cc1Nc1ccnc2c1C(=O)Nc1cc(CNCCO)ccc1N2 [Example 24, 8-{[(2-Hydroxyethyl)amino]methyl}-4-[(5-hydroxy-2-methylphenyl)amino]-6,11-dihydro-5H-pyrido[2,3-b][1,5]benzodiazepin-5-one] |
| 3.25 nM | CCNCc1ccc2c(c1)NC(=O)c1c(Nc3cc(O)ccc3C)ccnc1N2 [Example 25, 8-[(Ethylamino)methyl]-4-[(5-hydroxy-2-methylphenyl)amino]-6,11-dihydro-5H-pyrido[2,3-b][1,5]benzodiazepin-5-one] |
| 60.3 nM | Cc1ccc(O)cc1Nc1ccnc2c1C(=O)Nc1cc(CNc3ccccc3)ccc1N2 [Example 26, 8-Anilinomethyl-4-[(5-hydroxy-2-methylphenyl)amino]-6,11-dihydro-5H-pyrido[2,3-b][1,5]benzodiazepin-5-one] |
| 1.86 nM | CCN(CC)Cc1ccc2c(c1)NC(=O)c1c(Nc3cc(O)ccc3C)ccnc1N2 [Example 39, 8-[(Diethylamino)methyl]-4-[(5-hydroxy-2-methylphenyl)amino]-6,11-dihydro-5H-pyrido[2,3-b][1,5]benzodiazepin-5-one] |
| 1.8 nM | Cc1ccc(O)cc1Nc1ccnc2c1C(=O)Nc1cc(CN3CCCC3)ccc1N2 [Example 40, 4-[(5-Hydroxy-2-methylphenyl)amino]-8-(pyrrolidin-1-ylmethyl)-6,11-dihydro-5H-pyrido[2,3-b][1,5]benzodiazepin-5-one] |
| 2.3 nM | Cc1ccc(O)cc1Nc1ccnc2c1C(=O)Nc1cc(CN3CCN(C)CC3)ccc1N2 [Example 43, 4-[(5-Hydroxy-2-methylphenyl)amino]-8-[(4-methylpiperazin-1-yl)methyl]-6,11-dihydro-5H-pyrido[2,3-b][1,5]benzodiazepin-5-one] |
| 19.8 nM | Cc1ccc(O)cc1Nc1ccnc2c1C(=O)Nc1cc(CN3CCN(CCO)CC3)ccc1N2 [Example 44, 8-{[4-(2-Hydroxyethyl)piperazin-1-yl]methyl}-4-[(5-hydroxy-2-methylphenyl)amino]-6,11-dihydro-5H-pyrido[2,3-b][1,5]benzodiazepin-5-one] |
| 1.01 nM | Cc1cc(F)c(Nc2ccnc3c2C(=O)Nc2cc(CNC(C)C)ccc2N3)cc1O [Example 48, 4-[(2-Fluoro-5-hydroxy-4-methylphenyl)amino]-8-[(isopropylamino)methyl]-6,11-dihydro-5H-pyrido[2,3-b][1,5]benzodiazepin-5-one] |

same assay, conditions: 10 μM ATP; some mean values from multiple determinations; acetic acid salt

| IC50 | SMILES |
| --- | --- |
| 5.06 nM | Cc1cc(F)c(Nc2ccnc3c2C(=O)Nc2cc(CNC4CCCC4)ccc2N3)cc1O [Example 34, 8-[(Cyclopentylamino)methyl]-4-[(2-fluoro-5-hydroxy-4-methylphenyl)amino]-6,11-dihydro-5H-pyrido[2,3-b][1,5]benzodiazepin-5-one acetic acid salt] |
